According to patent publication US11419878B2, “Medicine obtained by combining FXR agonist and ARB” (Intercept Pharmaceuticals, Inc., priority 2016, dated 2022):

Key:
[1] = system: Otsuka Long-Evans Tokushima Fatty (OLETF) rats administered porcine serum (PS); assay: Rat NASH model (OLETF rats given porcine serum), Sirius Red histology of hepatic fibrosis; assay type: in vivo; conditions: obeticholic acid 30 mg/kg/day and/or losartan 30 mg/kg/day oral; for fibrosis index (FI) as fraction of the level in the positive control group: PS 8 weeks, p<0.01; for progression of hepatic fibrosis (micrographs of Sirius Red-stained liver sections): PS i.p. twice weekly 8 weeks
Protocol: As a rat NASH model, Otsuka Long-Evans Tokushima. Fatty (OLETF) rats, which are known as a model for naturally-occurring type II diabetes with obesity, were administered porcine serum (PS) in order to experimentally induce liver fibrosis, and the therapeutic effects of distilled water (vehicle administration group), obeticholic acid (an FXR agonist) and losartan (an ARB) (administration groups, combined administration group) were investigated according to the following method.
Male OLETF rats (n=40) and Long-Evans Tokushima Otsuka (LETO) rats=10; non-diabetic negative control group)
Obeticholic acid (obtained from Intercept Pharmaceuticals, Inc. via Sumitomo Dainippon Pharma Co., Ltd.) was used as an FXR agonist, and commercial losartan (potassium salt of losartan; referred to in this working example simply as “losartan”) was used as an ARB.
Obeticholic acid (30 mg/kg/day) and/or losartan (30 mg/kg/day) was/were given by forced oral administration; the administration period was 8 weeks in all cases.
12-week-old OLETF rats were randomly divided into 4 groups (G2, G3, G4, G5) (n=10 for each group) and given intraperitoneal administrations of 1.0 ml/kg of porcine serum (PS) twice weekly for 8 weeks. 12-week-old LETO rats (n=10) were taken as group G1 and administered PS in the same manner. On the same day on which PS administration was begun, the group G3 and G4 rats were respectively administered obeticholic acid (30 mg/kg/day) and losartan (30 mg/kg/day) daily for 8 weeks by forced continuous oral administration. The group G5 rats were given daily combined administration of obeticholic acid (30 mg/kg/day) and losartan (30 mg/kg/day) for 8 weeks in the same manner. The rats in the G1 group (LETO) and G2 group (OLETF) were administered distilled water as a vehicle instead of the drugs and taken as the negative and positive control group respectively (with the same administration method as in the drug groups).
In order to evaluate the progression of hepatic fibrosis, formalin-fixed paraffin-embedded liver sections (5 μm in width) were taken from rats that had completed the above testing and stained with Sirius Red. Micrographs of the stained sections were taken and collected (in all of the rats, microscopic images were collected with a total of 10 fields per sample), and the micrographs of the various groups were compared. In order to quantitate the progression of fibrosis in the various groups, a semiquantitative analysis of the histological characteristics of the images of the stained specimens collected was conducted using ImageJ software from the NIH (National Institutes of Health).

[2] = system: α-smooth muscle actin (α-SMA); assay: Rat NASH model, immunohistological staining of liver sections with α-SMA antibody (HSC activation); assay type: in vivo; conditions: OLETF rats, PS 8 weeks, obeticholic acid 30 mg/kg/day and/or losartan 30 mg/kg/day oral; for α-SMA index (α-SI) compared to the positive control group: p<0.01
Protocol: (§1) Using the liver sections from the rats in the various groups obtained in working example 1, an immunohistochemical study by immunohistological staining with α-smooth muscle actin (α-SMA) antibody and a quantitative analysis of transforming growth factor-β1 TGF-β1) and collagen (α1(I) procollagen) mRNA expression were conducted. α-SMA is known to be an indicator (marker) of activation of hepatic stellate cells (HSCs) (also known as hepatic star cells). Moreover, activation of hepatic stellate cells (HSC), overproduction of TGF-β1 (a fibrosis-promoting cytokine) accompanying said activation, and overproduction of extracellular matrix components such as collagen are thought to play a central role in the mechanism of progressive hepatic fibrosis in NASH. For this reason, mRNA expression of TGF-β1 and collagen (α1(I) procollagen) can be a fibrosis indicator (marker).
Using the same method as described under [Histological analysis] in working example 1 above, except that immunohistological staining with α-SMA antibody was used instead of Sirius Red staining, a comparison of the micrographs among the various groups and a semiquantitative analysis of the immunohistochemical characteristics of the collected stained section images were carried out, and the blocking effect of obeticholic acid and losartan (administration groups, combined administration group) on HSC activation in the progression of hepatic fibrosis was evaluated.

[3] = system: α1(I) procollagen; assay: Rat NASH model, RT-PCR of hepatic α1(I) procollagen mRNA expression; assay type: in vivo; conditions: OLETF rats, PS 8 weeks, obeticholic acid 30 mg/kg/day and/or losartan 30 mg/kg/day oral
Protocol: as §1
A comparative study was conducted by analyzing TGF-β1 and collagen (α1(I) procollagen) mRNA expression in the livers of the rates of the various groups of working example 1 by means of the quantitative real-time polymerase chain reaction (RT-PCR). Quantitation of the mRNA expression levels by RT-PCR was conducted on a StepOne Plus™ system (manufactured by Applied Biosystems®) using the fluorescent dye SYBR® Green

[4] = system: α1(I) procollagen; assay: HHSC fibrosis marker gene expression, RT-PCR, α1(I) procollagen; assay type: cell-based, human; conditions: AT-II 10^-6M + LPS 10^-5M; ARB 10^-6M, obeticholic acid 5×10^-6M; 24 hours; monotherapy vs G2AL, combination vs monotherapy groups
Protocol: The various combined effects of obeticholic acid and three types of ARBs (losartan, valsartan, and candesartan) were confirmed in an in vitro cell system experiment. Specifically, using human hepatic stellate cells (HHSC), which are implicated in the main mechanism of progression of hepatic fibrosis in NASH, the effects of administration of obeticholic acid in combination with the three ARBs of inhibiting HHSC proliferation capacity and the expression of fibrosis markers were evaluated according to the following method. Human hepatic stellate cells (HHSC) (also referred to as human hepatic star cells) Obeticholic acid (obtained from Intercept Pharmaceuticals, Inc. via Sumitomo Dainippon Pharma Co., Ltd.) was used as an FXR agonist, and commercial losartan (potassium salt of losartan; referred to in this working example simply as “losartan”) and valsartan and candesartan ([…] of candesartan; referred to in this working example simply as “candesartan”) were used as ARBs. Angiotensin II (AT-II) and/or lipopolysaccharide (LPS) were used (both AT1-mediated AT-II signalling and TLR4-mediated LPS signaling are known to play major roles in HSC activation and the progression of hepatic fibrosis). With respect to the effect of inhibiting fibrosis marker gene expression, collagen production capacity and TGF-β production capacity were evaluated by the RT-PCR method. 1) HHSCs were inoculated onto a 6-well plate in the amount of 300,000 cells/2 ml and allowed to proliferate in 1% FBS DMEM medium for 24 hours. 2) After 24 hours, the cells were divided into the following 7 groups and transferred to culture medium after adding the following drugs and/or reagents. Losartan was used as an ARB. Negative control group (G1): No drugs added (control) […] AT-II (10^-6M) Positive control group L […]): LPS (10^-5M) Positive control group AL ([…]): (10^-6M)+LPS (10^-5M) Obeticholic acid administration (G3): AT-II (10^-6M)+LPS (10^-5M)+obeticholic acid (5×10^-6M) ARB administration (G4): AT-II (10^-6M)+LPS (10^-5M)+ARB (10^-6M) Obeticholic acid+ARB combined administration (G5): AT-II (10^-6M)+LPS (10^-5M)+obeticholic acid (5×10^-6M)+ARB (10^-6M) […] Evaluations were conducted in the five groups G1, G2AL, G3, G4, and G5.

CCCCc1nc(Cl)c(CO)n1Cc1ccc(-c2ccccc2-c2nn[nH]n2)cc1 [losartan]
fibrosis index (FI) as fraction of the level in the positive control group [1]: 7/10
progression of hepatic fibrosis (micrographs of Sirius Red-stained liver sections) [1]: moderately inhibited
increase in activated hepatic stellate cells (Ac-HSCs), micrographs of α-SMA stained sections [2]: moderately inhibited
α-SMA index (α-SI) compared to the positive control group [2]: moderate but significant decreases
α1(I) procollagen mRNA expression in liver compared to the positive control group [3]: moderate decreasing tendency
α1(I)-procollagen mRNA expression induced by AT-II and LPS in HHSC [4]: statistically significant inhibition

CC[C@H]1[C@@H](O)[C@@H]2[C@H](CC[C@]3(C)[C@@H]([C@H](C)CCC(=O)O)CC[C@@H]23)[C@@]2(C)CC[C@@H](O)C[C@@H]12 [obeticholic acid, 3α,7α-dihydroxy-6α-ethyl-5β-cholan-24-oic acid]
fibrosis index (FI) as fraction of the level in the positive control group [1]: approximately 6/10
progression of hepatic fibrosis (micrographs of Sirius Red-stained liver sections) [1]: moderately inhibited
increase in activated hepatic stellate cells (Ac-HSCs), micrographs of α-SMA stained sections [2]: moderately inhibited
α-SMA index (α-SI) compared to the positive control group [2]: moderate but significant decreases
α1(I) procollagen mRNA expression in liver compared to the positive control group [3]: moderate decreasing tendency
α1(I)-procollagen mRNA expression induced by AT-II and LPS in HHSC [4]: statistically significant inhibition
